Data from patent US7741436B2, “Biologically active peptides and their use for repairing injured nerves” (priority 2001, dated 2010).

Key:
Assay type in all cases: cell-based
[1] = tested on: rat cerebellar granule neurons; assay: Electrophysiology: voltage-clamped whole-cell patch recordings of currents induced by laminin-1-derived peptides and fusion proteins; settings: whole-cell patch clamp, neurons on laminin-1 substratum
Excerpt: Sixteen-day pregnant Sprague-Dawley female rats were obtained from Taconic Farms, and maintained at the animal facility of National Institute of Alcohol Abuse and Alcoholism (NTH), fed with NTH-31 diet, containing 20,000 IU/kg vitamin A after autoclaving. The rats were allowed to give birth, and cerebellar tissues of 3-day-old female pups were aseptically isolated as described previously (Matsuzawa et al., 1996a). A suspension of single cells was obtained by trypsinizing the cerebella as described elsewhere (Liesi and Wright, 1996), after which 10^5 cells were plated on 22 mm glass coverslip pre-coated with laminin-1. The cells were incubated in an atmosphere of 95% air/5% CO2 at +37° C. in RPMI 1640 culture medium supplemented with penicillin and streptomycin and 200 μM L-glutamine. After 24 hrs, the cells were used for electrophysiology.
Recordings were done at room temperature using a List EPC-7 patch-clamp amplifier in voltage-clamped whole-cell patch configuration as described previously (Liesi and Wright, 1996). Pipettes were pulled from borosilicate glass and lightly fire polished. Experiments were performed at room temperature. Whole-cell currents were recorded on a Gould 2400S strip chart recorder. Cell membrane potential was clamped at −40 mV unless otherwise noted. All bath solutions were applied through pinch-valves that controlled the flow from multiple reservoirs to a single 200 μm ID barrel of fused silica. Standard bath solution was RPMI 1640, buffered with 10 mM HEPES (pH 7.4). The standard pipette solution contained (in mM): CsMeSO4 100, CsCl 15, BAPTA 5, HEPES 10 (pH KOH-adjusted to 7.2). Tests for reversal potentials were conducted in low K^+ bath solution containing (in mM): NaCl 150, KCl 5, CaCl2 1, HEPES 10 (pH adjusted to 7.2 with NaOH) and a high K^+ bath solution, containing (in mM): NaCl 115, KCl 40, CaCl2 1, HEPES 10 (pH adjusted to 7.2 with NaOH). All bath solutions contained 300 nM TTX. […] Nernst reversal potentials were calculated according to Hille (1992). […]

[2] = tested on: human embryonic neocortical neurons; assay: Survival of human embryonic neocortical neurons on injured glial cells of the human spinal cord; settings: 72 hrs
Excerpt: The CNS tissues were first placed in cold saline. The spinal cord tissues were identified under a stereomicroscope, and carefully freed of meninges. To obtain monolayer cultures of human spinal cord glial cells, the cells were dissociated by mechanical trituration using a Pasteur-pipette, and placed in Petri dishes (Corning, N.Y., USA) containing 10% fetal calf serum (Hyclone, Logan, UH) in DMEM-F12 (Gibco, U.K.) supplemented with penicillin and streptomycin as described (Liesi et al. 2001).
Human embryonic spinal cord glial cells were cultured till confluency in 10% fetal bovine serum as described (Liesi et al., 2001). The confluent cultures were trypsinized and cells replated at 100 000 cells/22 mm glass coverslip, and grown till confluency. The confluent cultures were changed into normal adult human serum, and injured by using a 18 G gauge sterile needle. The KDI peptide was added at 1 μg/ml (3 μM) and at 10 μg/ml (30 μM) concentration and the P1543 peptide (p20) was added at a concentration of 1 μM, and 50-100 000 freshly isolated human embryonic neocortical neurons were added on the glial cells. The control cultures had neurons added either without the peptide or the lesion. The cells were cultured for 72 hrs in 5% CO2/95% air at +37° C., and fixed for quantitation of neurons and measurement of their neuritic lengths. The neurons on glial monolayers were visualized by immunostaining using mouse monoclonal antibodies against a neuron-specific tubulin isoform (TUJ1). The results were evaluated by counting neurons in six random fields on 3 different coverslip per experiment. In this way, more than 300 neurons were counted per experiment. Statistical analysis of the results was performed using one-way analysis of Varians (ANOVA) and Student-Newman-Keuls multiple comparisons test on the Instat (v2.03) program (GraphPad, San Diego, Calif.).

human CNS neurons = assay: Attachment and neurite outgrowth of human embryonic CNS neurons on synthetic peptides coupled to glass; settings: 0.1-10 μg/ml, peptide covalently cross-linked to glass, 24 hrs
Procedure: The cells were dissociated by trituration in a sterile culture medium (RPMI 1640) containing penicillin (100 U/ml), streptomycin (100 μg/ml) and 200 μM L-glutamine. The dissociated cells were plated on glass coverslips pre-coated (Liesi et al., 1989) with mouse laminin-1 (Boehringer-Mannheim, Germany) or with the peptides KDI-gc and RDIAEIIKDI-gc (SEQ ID NO: 1), as described elsewhere (Matsuzawa et al., 1996b). The peptides were from the Multiple Peptide Systems (La Jolla, Calif.). The cultures were maintained for 24 hrs, fixed in 2% paraformaldehyde, and processed for immunocytochemistry.
Immunocytochemistry for neuron specific tubulin isoform TUJ1 was performed as described elsewhere (Liesi et al., 2001). In short, the cells were permeabilized in methanol for 5 min at −20° C., washed in PBS and incubated with monoclonal TUJ1-antibodies for 1 hr at room temperature. The antibody was of high specificity and was used at 1:500 dilution. After immunocytochemistry, the coverslips were mounted in PBS:glycerol (1:1) and viewed with Olympus Provis fluorescence microscope with appropriate filter combinations.

Substance: KDI
- induction of currents in cerebellar granule neurons [1]: induced currents
- attachment and neurite outgrowth of neocortical neurons on lesioned spinal cord glial cells ([2]; 1 μg/ml soluble peptide, vs lesion control): significantly (p<0.001) improved
- improvement of attachment and neurite outgrowth of neocortical neurons compared to that induced by p20 (1 μg/ml) ([2]; 1 μg/ml): statistically significant
- neuronal survival (attachment and neurite outgrowth) of neocortical neurons on lesioned spinal cord glial cells ([2]; 10 μg/ml soluble peptide, vs unlesioned and lesioned controls): no statistical difference of neuronal survival
- attachment and neurite outgrowth of human CNS neurons (human CNS neurons): supported attachment and neurite outgrowth
